Measured values published in US11674136B2, “DNA-templated macrocycle library” (President and Fellows of Harvard College, priority 2018, dated 2023).
Entries after “also recorded” stand apart in the source; their conditions may differ.

Target: T1, Recombinant human N-His6-IDE42-1019 (Homo sapiens, UniProt P14735)
T1 construct: Recombinant human N-His6-IDE42-1019(R&D Systems); His6 (N); purchased R&D Systems
T1 sequence (P14735 42-1019): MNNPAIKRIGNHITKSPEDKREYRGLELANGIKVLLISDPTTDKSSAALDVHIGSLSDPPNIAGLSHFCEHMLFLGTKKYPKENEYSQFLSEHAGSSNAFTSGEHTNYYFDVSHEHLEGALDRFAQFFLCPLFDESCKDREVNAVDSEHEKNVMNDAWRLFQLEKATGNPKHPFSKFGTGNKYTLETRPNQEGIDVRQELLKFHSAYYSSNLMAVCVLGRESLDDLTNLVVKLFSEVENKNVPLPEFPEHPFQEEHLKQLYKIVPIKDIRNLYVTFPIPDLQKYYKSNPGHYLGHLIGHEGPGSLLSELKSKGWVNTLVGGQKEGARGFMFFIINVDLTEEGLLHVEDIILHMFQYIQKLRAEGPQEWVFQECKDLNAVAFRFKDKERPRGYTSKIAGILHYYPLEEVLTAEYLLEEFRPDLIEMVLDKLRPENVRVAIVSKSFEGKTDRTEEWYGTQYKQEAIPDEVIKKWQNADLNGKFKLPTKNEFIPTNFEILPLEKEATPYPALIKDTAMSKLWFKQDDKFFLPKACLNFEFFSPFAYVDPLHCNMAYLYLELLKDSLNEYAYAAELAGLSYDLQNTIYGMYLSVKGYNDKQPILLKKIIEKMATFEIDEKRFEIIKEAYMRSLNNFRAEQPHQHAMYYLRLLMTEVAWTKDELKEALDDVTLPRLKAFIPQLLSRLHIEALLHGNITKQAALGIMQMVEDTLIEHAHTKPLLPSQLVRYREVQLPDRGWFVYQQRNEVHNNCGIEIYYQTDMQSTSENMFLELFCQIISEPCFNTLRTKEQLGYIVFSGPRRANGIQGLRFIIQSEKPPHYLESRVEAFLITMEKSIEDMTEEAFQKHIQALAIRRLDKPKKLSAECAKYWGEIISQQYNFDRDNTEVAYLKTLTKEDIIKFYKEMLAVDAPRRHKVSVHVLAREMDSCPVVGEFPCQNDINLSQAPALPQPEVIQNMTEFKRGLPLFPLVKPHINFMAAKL
Experiment: IDE inhibition assay with fluorogenic decapeptide substrate Mca-RPPGFSAFK(Dnp)-OH
Assay type: biochemical
Conditions: fluorogenic decapeptide cleavage assay; for IC50: DNA-free macrocycle; for IDE inhibition, potency in words: comparison with reference inhibitors
Protocol: Recombinant human N-His6-IDE42-1019(R&D Systems) was assayed using the fluorophore/quencher-tagged peptide substrate Mca-RPPGFSAFK(Dnp)-OH (R&D) according to the manufacturer's instructions and using the recommended buffer 50 mM Tris, pH 7.5, 1 M NaCl (fluorophore Mca=(7-methoxycourmarin-4-yl)acetyl and quencher Dnp=2,4-dinitrophenyl). The enzyme mixture (48 μL) was transferred to a 96-well plate and combined with 2 μL of inhibitor in DMSO solutions, as 3-fold dilution series. The mixtures were allowed to equilibrate for 5 minutes and the enzymatic reaction was started by addition of substrate peptide in assay buffer (50 μL), immediately mixed by orbital shaking, and monitored on a fluorescence plate reader (excitation at 320 nm, emission at 405 nm). […] Inhibitor 6bK was used as a positive control in each assay, and error bars correspond to the standard error.

IC50 [nM]	Structure (SMILES)	IDE inhibition, potency in words
50	CC1NC(=O)C=CC(=O)NC(C(=O)NCCOCCN)Cc2cccc(c2)CNC(=O)C(Cc2ccc(C(=O)c3ccccc3)cc2)NC(=O)C(CC2CCCCC2)NC1=O (stereo not drawn) [trans-DJPM]	equipotent to the structurally similar trans-6bK and trans-6bA macrocycles; also recorded: comparable in potency to our previously optimized 20-membered inhibitor 6bK; also recorded: equipotent to the previously optimized IDE inhibitor 6bK
30000	NCCOCCNC(=O)C1Cc2ccccc2CNC(=O)CC(Cc2ccccc2)NC(=O)C(Cc2ccco2)NC(=O)CN2CCN(CC2)C(=O)C=CC(=O)N1 (stereo not drawn) [cis-CODVV]	
40	NCCOCCNC(=O)C1CCNC(=O)C=CC(=O)NC(Cc2ccccc2C(F)(F)F)C(=O)NC(CC2CCCCC2)C(=O)NC(Cc2ccc(C(=O)c3ccccc3)cc2)C(=O)N1 (stereo not drawn) [cis-DJIR]	equipotent to the structurally similar trans-6bK and trans-6bA macrocycles; also recorded: at least as potent that 6bK
